Data: US12264156B2, “Compounds and pharmaceutical compositions thereof for the treatment of diseases” (GALAPAGOS NV, priority 2018, dated 2025)

What follows are compounds tested on LPS triggered IL-10 secretion in monocyte-derived macrophages (MdM) (assay: MdM assay: LPS-triggered IL-10 (ELISA)). Conditions: LPS 200 ng/mL, supernatant after 2 h, maximal fold change vs LPS only.
Format: cell-based, human
Method: SIK inhibition inhibits TNFα and increases IL-10 release in LPS triggered monocyte-derived macrophages (MdM) and dendritic […] al. 2012; Sundberg et al. 2014; Ozanne et al. 2015). This assay evaluates illustrative compounds of the invention for their inhibition of LPS-induced TNFα and LPS triggered IL-10 secretion in monocyte-derived macrophages. PBMCs are isolated from human blood samples (buffycoats). The buffy coat is aseptically transferred into a 50 mL Falcon tube, and diluted 1/2 in PBS. Falcon tubes are filled with 20 mL LymphoprepTM, on top of which 25 mL of the buffy coat is carefully added, tubes are centrifuged for 35 min at 400 g in temperature controlled centrifuge, without brake, at 25° C. PBMCs are aspirated from the white interface layer between sample and LymphoprepTM. PBMCs are washed five times in PBS. Cells are resuspended in RPMI 1640 complete medium supplemented with 10% FBS, 1% P/S, and cell density is determined using a hematologic analyzer (Sysmex XS-500i). PBMCs are centrifuged at 300×g for 10 min and resuspended at a density of 1.0*10^7 cells/80 μL Miltenyi buffer (PBS, pH 7.4, 1% FBS, 2 mM EDTA). Starting from this point of the protocol all steps are performed on ice. 20 μL of CD14+ micro-beads are added per 1.0*10^7 cells, the tube is mixed and incubated for 15 min in the fridge at 4° C. Cell suspension volume is adjusted to total volume of 100 mL using Miltenyi buffer, mixed gently and subsequently centrifuged for 10 min at 300×g. Supernantant is discarded and cell pellet is resuspended in 12 mL of Miltenyi buffer. Four LS columns are placed in the MACS Separator (magnet) from Miltenyi Biotec, and are prewet by rinsing with 3 mL of MACS buffer per column. Three mL of cell suspension is added onto the column (max 1*10^8 of labelled cells/column), and columns are subsequently washed 3 times with 3 mL of Miltenyi buffer. The columns are removed from the magnets, and 5 mL of Miltenyi buffer are added to the column to flush out the CD14+ fraction by pushing the plunger into the column. The flushed fractions are collected in a fresh 50 mL Falcon and volume is adjusted to 30 mL using Miltenyi buffer, cells are centrifuged for 10 min at 300×g. The obtained cell pellet is resuspended in 10 mL RPMI w/o FBS, and cell density is determined using a hematologic analyser (Sysmex XS-500i). 100 000 cells are seeded per well of a 96-well plate for differentiation to MdM in RPMI 1640 medium supplemented with 10% FBS, 1% P/S and 100 ng/mL rhM-CSF. On day 5 the medium is refreshed with 100 μL RPMI 1640 medium supplemented with 10% FBS, 1% P/S and 100 ng/mL rhM-CSF. On day 10, MdMs are triggered and compound is added. A compound dilution plate is made in 100% DMSO by 3-fold dilution of 10 mM stock solution. An intermediate dilution plate (10× final concentration) is made by diluting the compound dilution plate 50-fold in RPMI medium. Medium is carefully removed from cell plates using multichannel pipette, and replaced by 80 μL fresh medium. 10 μL of the 10× final concentration compound is added to the cells and incubated for 1 hour at 37° C. before addition of trigger. No trigger conditions/trigger conditions are spiked with equal final DMSO concentrations of 0.2% DMSO. 10 μL of 10×LPS (final conc. 200 ng/mL) solution are added to all wells except for the 'no trigger wells' where 10 μL medium is added. Supernatant is collected after 2 h (IL-10 determination) and after 20 h (TNFα determination) of LPS triggering. […]

Row | SMILES | IL-10 FCmax median
1 | COc1cc(-c2cnc3cc(OCCN(C)C)ccn23)cc(OC(F)F)c1C(=O)NC1CC1 [Cpd 6, N-cyclopropyl-2-(difluoromethoxy)-4-[7-[2-(dimethylamino)ethoxy]imidazo[1,2-a]pyridin-3-yl]-6-methoxy-benzamide] | ++ (>1.5-4.5)
2 | COc1cc(-c2cnc3cc(OCCCN(C)C)ccn23)cc(OC(F)F)c1C(=O)NC1CC1 [Cpd 13] | ++ (>1.5-4.5)
3 | COc1cc(-c2cnc3cc(OCC4CN(C)C4)ccn23)cc(OC(F)F)c1C(=O)NC1CC1 [Cpd 14, N-cyclopropyl-2-(difluoromethoxy)-6-methoxy-4-[7-[(1-methylazetidin-3-yl)methoxy]imidazo[1,2-a]pyridin-3-yl]benzamide] | ++ (>1.5-4.5)
4 | COc1cc(-c2cnc3cc(OCCN(C)C)ccn23)cc2c1C(=O)N(CC(F)(F)F)CC2 [Cpd 18, 6-[7-[2-(dimethylamino)ethoxy]imidazo[1,2-a]pyridin-3-yl]-8-methoxy-2-(2,2,2-trifluoroethyl)-3,4-dihydroisoquinolin-1-one] | ++ (>1.5-4.5)
5 | COc1cc(-c2cnc3cc(OC[C@H]4COCCO4)ccn23)cc2c1C(=O)N(CC(F)(F)F)CC2 [Cpd 86, 6-[7-[[(2R)-1,4-dioxan-2-yl]methoxy]imidazo[1,2-a]pyridin-3-yl]-8-methoxy-2-(2,2,2-trifluoroethyl)-3,4-dihydroisoquinolin-1-one] | ++ (>1.5-4.5)
6 | COc1cc(-c2cnc3cc(OCCN4CCOCC4)ccn23)cc2c1C(=O)N(CC(F)(F)F)CC2 [Cpd 88, 8-methoxy-6-[7-(2-morpholinoethoxy)imidazo [1,2-a]pyridin-3-yl]-2-(2,2,2-trifluoroethyl)-3,4-dihydroisoquinolin-1-one] | ++ (>1.5-4.5)
7 | COc1cc(-c2cnc3cc(OCCC4CCCN4C)ccn23)cc2c1C(=O)N(CC(F)(F)F)CC2 (stereo not drawn) [Cpd 122, 8-methoxy-6-[7-[2-(1-methylpyrrolidin-2-yl)ethoxy]imidazo[1,2-a]pyridin-3-yl]-2-(2,2,2-trifluoroethyl)-3,4-dihydroisoquinolin-1-one] | ++ (>1.5-4.5)
8 | CN(C)CCOc1ccn2c(-c3cc4c(c(OC(F)F)c3)C(=O)N(CC(F)F)CC4)cnc2c1 [Cpd 150, 2-(2,2-difluoroethyl)-8-(difluoromethoxy)-6-[7-[2-(dimethylamino)ethoxy]imidazo[1,2-a]pyridin-3-yl]-3,4-dihydroisoquinolin-1-one] | ++ (>1.5-4.5)
9 | CNc1cc(-c2cnc3cc(OCCN(C)C)ccn23)cc(OC(F)F)c1C(=O)NCC(F)(F)F [Cpd 165, 2-(difluoromethoxy)-4-[7-[2-(dimethylamino)ethoxy]imidazo[1,2-a]pyridin-3-yl]-6-(methylamino)-N-(2,2,2-trifluoroethyl)benzamide] | ++ (>1.5-4.5)
10 | COc1cc(-c2cnc3cc(OCCN4CCOC[C@@H]4C)ccn23)cc2c1C(=O)N(CC(F)(F)F)CC2 [Cpd 257, 8-methoxy-6-[7-[2-[(3S)-3-methylmorpholin-4-yl]ethoxy]imidazo[1,2-a]pyridin-3-yl]-2-(2,2,2-trifluoroethyl)-3,4-dihydroisoquinolin-1-one] | ++ (>1.5-4.5)
11 | COc1cc(-c2cnc3cc(OCCCN4CC(O)C4)ccn23)cc(OC(F)F)c1C(=O)NC1CC1 [Cpd 286, N-cyclopropyl-2-(difluoromethoxy)-4-[7-[3-(3-hydroxyazetidin-1-yl)propoxy]imidazo[1,2-a]pyridin-3-yl]-6-methoxy-benzamide] | ++ (>1.5-4.5)
12 | COc1cc(-c2cnc3cc(OCC(O)CN4CCCCC4)ccn23)cc(OC(F)F)c1C(=O)NC1CC1 (stereo not drawn) [Cpd 321, N-cyclopropyl-2-(difluoromethoxy)-4-[7-[2-hydroxy-3-(1-piperidyl)propoxy]imidazo [1,2-a]pyridin-3-yl]-6-methoxy-benzamide] | ++ (>1.5-4.5)
13 | COc1cc(-c2cnc3cc(OCC(O)CN4CCOCC4)ccn23)cc(OC(F)F)c1C(=O)NC1CC1 (stereo not drawn) [Cpd 330, N-cyclopropyl-2-(difluoromethoxy)-4-[7-(2-hydroxy-3-morpholino-propoxy)imidazo[1,2-a]pyridin-3-yl]-6-methoxy-benzamide] | ++ (>1.5-4.5)
14 | COc1cc(-c2cnc3cc(OCCN4CCCCC4)ccn23)cc(OC(F)F)c1C(=O)NC1CC1 [compound 10, N-cyclopropyl-2-(difluoromethoxy)-6-methoxy-4-[7-[2-(1-piperidyl)ethoxy]imidazo [1,2-a]pyridin-3-yl]benzamide] | ++ (>1.5-4.5)
15 | COc1cc(-c2cnc3cc(OCCC4CCCN4C)ccn23)cc(OC(F)F)c1C(=O)NC1CC1 (stereo not drawn) [compound 17, N-cyclopropyl-2-(difluoromethoxy)-6-methoxy-4-[7-[2-(1-methylpyrrolidin-2-yl)ethoxy]imidazo[1,2-a]pyridin-3-yl]benzamide] | ++ (>1.5-4.5)
16 | COc1cc(-c2cnc3cc(OCC4CCCCN4C)ccn23)cc(OC(F)F)c1C(=O)NC1CC1 (stereo not drawn) [compound 23, N-cyclopropyl-2-(difluoromethoxy)-6-methoxy-4-[7-[(1-methyl-2-piperidyl)methoxy]imidazo[1,2-a]pyridin-3-yl]benzamide] | ++ (>1.5-4.5)
17 | CCNCCOc1ccn2c(-c3cc(OC)c(C(=O)NC4CC4)c(OC(F)F)c3)cnc2c1 [compound 37, N-cyclopropyl-2-(difluoromethoxy)-4-[7-[2-(ethylamino)ethoxy]imidazo[1,2-a]pyridin-3-yl]-6-methoxy-benzamide] | ++ (>1.5-4.5)
18 | COc1cc(-c2cnc3cc(OCC4CN(C)C4)ccn23)cc2c1C(=O)N(CC(F)(F)F)CC2 [compound 39, 8-methoxy-6-[7-[(1-methylazetidin-3-yl)methoxy]imidazo[1,2-a]pyridin-3-yl]-2-(2,2,2-trifluoroethyl)-3,4-dihydro isoquinolin-1-one] | ++ (>1.5-4.5)
19 | COc1cc(-c2cnc3cc(OCCN4CCCCC4)ccn23)cc2c1C(=O)N(CC(F)(F)F)CC2 [compound 40, 8-methoxy-6-[7-[2-(1-piperidyl)ethoxy]imidazo [1,2-a]pyridin-3-yl]-2-(2,2,2-trifluoroethyl)-3,4-dihydroisoquinolin-1-one] | ++ (>1.5-4.5)
20 | COc1cc(-c2cnc3cc(OCCN4CCS(=O)(=O)CC4)ccn23)cc2c1C(=O)N(CC(F)(F)F)CC2 [compound 41, 6-[7-[2-(1,1-dioxo-1,4-thiazinan-4-yl)ethoxy]imidazo[1,2-a]pyridin-3-yl]-8-methoxy-2-(2,2,2-trifluoroethyl)-3,4-dihydroisoquinolin-1-one] | ++ (>1.5-4.5)
21 | COc1cc(-c2cnc3cc(OCc4ccnn4C)ccn23)cc(OC(F)F)c1C(=O)NC1CC1 [compound 44, N-cyclopropyl-2-(difluoromethoxy)-6-methoxy-4-[7-[(2-methylpyrazol-3-yl)methoxy]imidazo[1,2-a]pyridin-3-yl] benzamide] | + (≤1.5)
22 | COc1cc(-c2cnc3cc(OC(C)C(F)(F)F)ccn23)cc(OC(F)F)c1C(=O)NC1CC1 (stereo not drawn) [compound 45, N-cyclopropyl-2-(difluoromethoxy)-6-methoxy-4-[7-(2,2,2-trifluoro-1-methyl-ethoxy)imidazo[1,2-a]pyridin-3-yl]benzamide] | + (≤1.5)
23 | COc1cc(-c2cnc3cc(OCCN(C)C)ccn23)cc2c1C(=O)N(CC(F)F)CC2 [compound 54, 2-(2,2-difluoroethyl)-6-[7-[2-(dimethylamino)ethoxy]imidazo [1,2-a]pyridin-3-yl]-8-methoxy-3,4-dihydro isoquinolin-1-one] | ++ (>1.5-4.5)
24 | COc1cc(-c2cnc3cc(OC[C@H]4CCCN4C)ccn23)cc(OC(F)F)c1C(=O)NC1CC1 [compound 81, N-cyclopropyl-2-(difluoromethoxy)-6-methoxy-4-[7-[[(2R)-1-methylpyrrolidin-2-yl]methoxy]imidazo[1,2-a]pyridin-3-yl]benzamide] | ++ (>1.5-4.5)
